From ChEMBL document CHEMBL1201862, “PubChem BioAssay data set” (2004)
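Following 48 hours of exposure in 96-well plates, responses at five concentrations were used to interpolate endpoints linearly. The concentration for 50% growth inhibition is given as GI50.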 Calls of active or inactive are those of the source. Cut-off read from the data, not from the text of the source: active = GI50 up to about 1.1 µM and inactive = higher.

What was measured:
Experiment in all cases: DTP human tumour cell line panel, 48 h
HOP-92 = tested on: HOP-92
UACC-62 = tested on: UACC-62
MCF7 = tested on: MCF7
SW-620 = tested on: SW-620
HL-60 = tested on: HL-60
SK-MEL-5 = tested on: SK-MEL-5
SN12C = tested on: SN12C
SNB-19 = tested on: SNB-19
UO-31 = tested on: UO-31
A498 = tested on: A498
A549 = tested on: A549
IGROV-1 = tested on: IGROV-1
NCI-H460 = tested on: NCI-H460
OVCAR-4 = tested on: OVCAR-4
OVCAR-8 = tested on: OVCAR-8
HOP-62 = tested on: HOP-62
RPMI-8226 = tested on: RPMI-8226
SF-268 = tested on: SF-268
Malme-3M = tested on: Malme-3M
TK-10 = tested on: TK-10

Compound | GI50 (HOP-92) | GI50 (UACC-62) | GI50 (MCF7) | GI50 (SW-620) | GI50 (HL-60) | GI50 (SK-MEL-5) | GI50 (SN12C) | GI50 (SNB-19) | GI50 (UO-31) | GI50 (A498) | GI50 (A549) | GI50 (IGROV-1) | GI50 (NCI-H460) | GI50 (OVCAR-4) | GI50 (OVCAR-8) | GI50 (HOP-62) | GI50 (RPMI-8226) | GI50 (SF-268) | GI50 (Malme-3M) | GI50 (TK-10)
CCNC(=O)C(C)C1CCC2(C)C=CC(=O)C(C)=C2C1O (centres undefined) | > 100 µM (inactive) | > 100 µM (inactive) | > 100 µM (inactive) | > 100 µM (inactive) | > 100 µM (inactive) | > 100 µM (inactive) | > 100 µM (inactive) | > 100 µM (inactive) | > 73.6 µM (inactive) | > 100 µM (inactive) | 99.5 µM (inactive) | 98.4 µM (inactive) | > 100 µM (inactive) | > 100 µM (inactive) | > 100 µM (inactive) | > 100 µM (inactive) | > 100 µM (inactive) | > 100 µM (inactive) | – | –
Cc1ccc(C=C(C(=O)O)C(=O)O)o1 | – | > 100 µM (inactive) | > 100 µM (inactive) | > 100 µM (inactive) | > 100 µM (inactive) | > 100 µM (inactive) | > 100 µM (inactive) | > 100 µM (inactive) | > 100 µM (inactive) | > 100 µM (inactive) | > 100 µM (inactive) | > 100 µM (inactive) | > 100 µM (inactive) | – | > 100 µM (inactive) | > 100 µM (inactive) | > 100 µM (inactive) | > 100 µM (inactive) | > 100 µM (inactive) | > 100 µM (inactive)
Cc1ccc([N+](=O)[O-])cc1S(=O)(=O)Nc1ccc(C2=NN(C(=O)c3ccccc3)C(c3ccccc3)C2)cc1 (centres undefined) | 14.5 µM (inactive) | – | 17.1 µM (inactive) | 40.7 µM (inactive) | 21.5 µM (inactive) | 12.9 µM (inactive) | 21.8 µM (inactive) | 29.1 µM (inactive) | 22.4 µM (inactive) | 10.9 µM (inactive) | 18.7 µM (inactive) | 17 µM (inactive) | – | 18.2 µM (inactive) | 18.9 µM (inactive) | 15.9 µM (inactive) | 25.5 µM (inactive) | 18.5 µM (inactive) | 18.2 µM (inactive) | 18 µM (inactive)
CCOC(=O)CN1CCS/C1=N/C#N | > 60 µM (inactive) | > 100 µM (inactive) | > 100 µM (inactive) | > 100 µM (inactive) | > 100 µM (inactive) | > 100 µM (inactive) | > 100 µM (inactive) | > 100 µM (inactive) | > 100 µM (inactive) | > 100 µM (inactive) | > 100 µM (inactive) | > 100 µM (inactive) | > 31.6 µM (inactive) | > 100 µM (inactive) | > 100 µM (inactive) | > 100 µM (inactive) | > 100 µM (inactive) | > 100 µM (inactive) | > 100 µM (inactive) | –
CC1=CC(O)C(O)C2(C)C1CC1OC(=O)C(O)C3C(C)C(O)C4(O)OCC13C42 (centres undefined) | 6.03 µM (inactive) | 84.3 µM (inactive) | 91.6 µM (inactive) | 24.7 µM (inactive) | 33 µM (inactive) | 29.4 µM (inactive) | 236 µM (inactive) | 13.7 µM (inactive) | 110 µM (inactive) | 17.9 µM (inactive) | 27.9 µM (inactive) | 15.9 µM (inactive) | 7.82 µM (inactive) | 40.9 µM (inactive) | 32.1 µM (inactive) | 65.3 µM (inactive) | 16.9 µM (inactive) | 133 µM (inactive) | 97.7 µM (inactive) | –
COc1cc(C=O)cc(O)c1O | – | 27.4 µM (inactive) | – | > 100 µM (inactive) | 46.7 µM (inactive) | – | > 100 µM (inactive) | > 100 µM (inactive) | > 100 µM (inactive) | – | > 100 µM (inactive) | > 100 µM (inactive) | 76.6 µM (inactive) | – | > 100 µM (inactive) | > 100 µM (inactive) | > 100 µM (inactive) | > 100 µM (inactive) | > 100 µM (inactive) | > 100 µM (inactive)
CSC1=C(SC)C(=O)c2cn(C)c(=O)cc2C1=O | 0.904 µM (active) | 2.7 µM (inactive) | 2.05 µM (inactive) | 1.74 µM (inactive) | 0.0731 µM (active) | 1.75 µM (inactive) | 3.27 µM (inactive) | 17.1 µM (inactive) | 1.75 µM (inactive) | 15.1 µM (inactive) | 16.1 µM (inactive) | 11.1 µM (inactive) | 9.38 µM (inactive) | 1.97 µM (inactive) | > 44.1 µM (inactive) | 9.38 µM (inactive) | 2.4 µM (inactive) | 11.8 µM (inactive) | 2.24 µM (inactive) | 2.33 µM (inactive)
CC(C)[C@](O)(C(=O)OCC1CC[N+]2([O-])CC[C@@H](O)C12)[C@H](C)O (some centres undefined) | > 375 µM (inactive) | > 375 µM (inactive) | > 375 µM (inactive) | > 375 µM (inactive) | > 375 µM (inactive) | > 334 µM (inactive) | > 375 µM (inactive) | > 375 µM (inactive) | > 375 µM (inactive) | > 59.4 µM (inactive) | > 375 µM (inactive) | > 375 µM (inactive) | > 122 µM (inactive) | > 375 µM (inactive) | > 375 µM (inactive) | > 375 µM (inactive) | > 375 µM (inactive) | > 375 µM (inactive) | > 255 µM (inactive) | –
O=C1OC2CC=CC1C2 (centres undefined) | > 100 µM (inactive) | > 100 µM (inactive) | > 100 µM (inactive) | > 100 µM (inactive) | > 100 µM (inactive) | > 100 µM (inactive) | > 100 µM (inactive) | > 100 µM (inactive) | > 100 µM (inactive) | > 100 µM (inactive) | > 100 µM (inactive) | > 100 µM (inactive) | > 100 µM (inactive) | > 100 µM (inactive) | > 100 µM (inactive) | > 100 µM (inactive) | > 100 µM (inactive) | > 100 µM (inactive) | > 100 µM (inactive) | –
COc1ccc(NC(=S)NNC(=O)c2nsc3ccccc23)cc1 | 17.4 µM (inactive) | 27.7 µM (inactive) | – | 48.4 µM (inactive) | 19.9 µM (inactive) | 30.8 µM (inactive) | 31.8 µM (inactive) | 26.9 µM (inactive) | 25.2 µM (inactive) | – | 37.2 µM (inactive) | 35.1 µM (inactive) | 33.5 µM (inactive) | 62.2 µM (inactive) | 43.7 µM (inactive) | 43.5 µM (inactive) | 22.3 µM (inactive) | 34.4 µM (inactive) | – | 43.4 µM (inactive)
CSCCC(NOC(=O)Cc1ccccc1)P(=O)(O)c1ccccc1 (centres undefined) | > 100 µM (inactive) | – | > 100 µM (inactive) | > 100 µM (inactive) | > 100 µM (inactive) | > 100 µM (inactive) | > 100 µM (inactive) | > 100 µM (inactive) | > 100 µM (inactive) | – | > 100 µM (inactive) | > 100 µM (inactive) | > 100 µM (inactive) | > 100 µM (inactive) | > 100 µM (inactive) | > 100 µM (inactive) | > 100 µM (inactive) | – | – | > 100 µM (inactive)
COc1ccc2c(c1)c1c(n2CCN2CCCCC2)-c2cccc(OC)c2CC1 | > 10 µM (inactive) | 14.2 µM (inactive) | 15.5 µM (inactive) | 16.7 µM (inactive) | – | 18.2 µM (inactive) | 14.9 µM (inactive) | 13.4 µM (inactive) | 10.4 µM (inactive) | 20.1 µM (inactive) | 27.9 µM (inactive) | 13.4 µM (inactive) | 19.9 µM (inactive) | 29.2 µM (inactive) | 16.9 µM (inactive) | 16.7 µM (inactive) | 11.5 µM (inactive) | 19.7 µM (inactive) | – | 15 µM (inactive)
COc1cc2c(oc(=O)c3cc4cc([Si](C)(C)C)oc4c(OC)c32)c2cccc(O)c12 | > 100 µM (inactive) | > 100 µM (inactive) | – | > 100 µM (inactive) | > 100 µM (inactive) | > 100 µM (inactive) | > 100 µM (inactive) | > 100 µM (inactive) | > 100 µM (inactive) | 78.9 µM (inactive) | > 100 µM (inactive) | > 100 µM (inactive) | > 100 µM (inactive) | > 100 µM (inactive) | > 100 µM (inactive) | > 100 µM (inactive) | > 100 µM (inactive) | > 100 µM (inactive) | > 100 µM (inactive) | > 100 µM (inactive)
Oc1nc2c(c(-c3ccccc3Cl)n1)COC/C2=C\c1ccccc1Cl | > 100 µM (inactive) | > 100 µM (inactive) | 65.9 µM (inactive) | > 100 µM (inactive) | 71.4 µM (inactive) | > 100 µM (inactive) | > 100 µM (inactive) | > 100 µM (inactive) | 80.9 µM (inactive) | > 100 µM (inactive) | – | 43.9 µM (inactive) | > 100 µM (inactive) | > 100 µM (inactive) | > 100 µM (inactive) | > 100 µM (inactive) | > 100 µM (inactive) | > 100 µM (inactive) | – | > 100 µM (inactive)
Clc1ccc(C2SCc3nc4ccccc4n32)cc1 (centres undefined) | 2.54 µM (inactive) | 13.8 µM (inactive) | – | 33.3 µM (inactive) | 5.24 µM (inactive) | 10.3 µM (inactive) | 17.1 µM (inactive) | 14.8 µM (inactive) | 13.5 µM (inactive) | 20.9 µM (inactive) | – | 14.5 µM (inactive) | 28.9 µM (inactive) | – | 29.1 µM (inactive) | – | 14.9 µM (inactive) | 19 µM (inactive) | 11.1 µM (inactive) | 30.1 µM (inactive)
